Data as given in patent publication US20190358242A1, “COMPOSITIONS, KITS, AND METHODS TO INDUCE ACQUIRED CYTORESISTANCE USING STRESS PROTEIN INDUCERS” (FRED HUTCHINSON CANCER RESEARCH CENTER, priority 2017, published 2019).

Tests used:
HO-1 protein = experiment: Renal cortical HO-1 protein (ELISA) after FeS, SnPP, B12; type: in vivo, CD-1 mice; conditions: for HO-1 protein increases (FIG. 21): 4 hrs and 18 hrs after IV injection
Experimental: Effects of FeS, SnPP, and B12 on renal cortical induction of heme oxygenase 1(HO-1). The following experiments assessed the effects of FeS, SnPP, and B12 on the possible induction of the cytoprotective protein HO-1. To this end, mice were injected with each of these agents, as noted above. Either 4 or 18 hrs later, they were anesthetized and the kidneys were removed through a midline abdominal incision. The renal cortices were dissected on ice and then extracted for protein and mRNA. The samples were then assayed for HO-1 protein by ELISA, and HO-1 mRNA by RT-PCR, factored by GAPDH levels. Five normal mice provided control values.

maleate model of AKI = experiment: Maleate model of AKI (800 mg/Kg), FeS/SnPP and FeS/B12; type: in vivo, CD-1 mice; conditions: IV 18 hrs before 800 mg/Kg maleate; 18 hrs post maleate; 1 mg FeS, 1 μmole SnPP or B12
Source text: Effects of Fe sucrose (FeS)/tin protoporphyrin (SnPP) on AKI severity. Maleate model of AKI. When injected into rodents, maleate undergoes relatively selective proximal tubule cell uptake via organic anion transporters. Once intracellular accumulation occurs, maleate is a preferred substrate for succinyl-CoA:3-oxoacid CoA transferase. […] Ample levels of CoA are essential for fatty acid “activation”, allowing for their subsequent metabolism through the Krebs cycle, yielding ATP. In the absence of this process, proximal tubule ATP depletion and cell injury result. Additionally, maleate conjugates the sulfhydryl group of glutathione (GSH), culminating in GSH depletion and potential oxidant tubular stress.
The following experiment tested whether FeS, SnPP or combined FeS+SnPP can mitigate this form of acute kidney injury (AKI). Twenty seven mice were subjected to 200 μL IV tail injections of one of the following: 1) vehicle (phosphate buffered saline, PBS; n, 10); 2) 1 mg FeS (American Regent (Shirley, N.Y.; n, 3); 3) 1 μmole SnPP (Frontier Scientific, Logan, Utah; n 7), or FeS+SnPP, n, 7). […] The severity of kidney injury was assessed by determining plasma blood urea nitrogen (BUN) and plasma creatinine (PCr) concentrations.
Maleate model of AKI. […] The severity of AKI was determined 18 hrs post maleate injection by terminal BUN and PCr assessments.

ferritin heavy chain = experiment: Kidney ferritin heavy chain expression (Western blotting); type: in vivo, mice; conditions: 18 hrs following 1 umole SnPP, 1 mg FeS or combined
Experimental: FIG. 32. Ferritin heavy chain expression (as determined by Western blotting) in kidneys 18 hrs following 1 umole tin protoporphyrin (SnPP), 1 mg Fe sucrose (FeS) or combined SnPP+FeS treatment.

| Substance | HO-1 protein increases (FIG. 21) (HO-1 protein) | Severity of maleate-induced AKI (BUN/PCr), in words (maleate model of AKI) | Renal cortical HO-1 protein levels (HO-1 protein; 18 hr time point) | Ferritin heavy chain protein levels in kidney (ferritin heavy chain) |
| --- | --- | --- | --- | --- |
| cyanocobalamin [B12] | marked HO-1 protein increases within 4 hrs and persists for 18 hrs |  |  |  |
| iron sucrose [FeS] | marked HO-1 protein increases within 4 hrs and persists for 18 hrs | Neither SnPP alone nor FeS alone significantly altered the severity of renal injury | remained elevated at the 18 hr time point, particularly in the case of FeS administration | strong ferritin inducer |
